Measured values taken from PubChem BioAssay (NCI).
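Growth conditions: 96-well plates. Treatment: test compound, 48 hours, 5 concentrations. Analysis: linear interpolation between bracketing concentrations; unreached endpoints set to highest concentration. TGI denotes the concentration required for complete inhibition of growth.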

Assays:
Experiment in all cases: inhibition of tumour cell growth, NCI panel, 48 h
HL-60(TB) leukemia = test system: HL-60(TB) leukemia
HCC-2998 colon = test system: HCC-2998 colon
OVCAR-3 ovarian = test system: OVCAR-3 ovarian
SR leukemia = test system: SR leukemia
LOX IMVI melanoma = test system: LOX IMVI melanoma
SNB-75 CNS = test system: SNB-75 CNS
BT-549 breast = test system: BT-549 breast
K-562 leukemia = test system: K-562 leukemia
786-0 renal = test system: 786-0 renal
COLO 205 colon = test system: COLO 205 colon

## CCOC(=O)C1CCC(=O)N1C(=O)c1ccccc1Cl (stereo not drawn)
HL-60(TB) leukemia
  TGI: > 100 µM
HCC-2998 colon
  TGI: > 100 µM
OVCAR-3 ovarian
  TGI: > 100 µM
SR leukemia
  TGI: > 100 µM
LOX IMVI melanoma
  TGI: > 100 µM
SNB-75 CNS
  TGI: > 100 µM
BT-549 breast
  TGI: > 100 µM
K-562 leukemia
  TGI: > 100 µM
786-0 renal
  TGI: > 100 µM

## C[n+]1c(/C=C/c2ccc(O)c3ncccc23)[se]c2ccccc21
HL-60(TB) leukemia
  TGI: 7.66 µM
OVCAR-3 ovarian
  TGI: 4.5 µM
SR leukemia
  TGI: > 21.9 µM
LOX IMVI melanoma
  TGI: 9.08 µM
SNB-75 CNS
  TGI: 34.8 µM
BT-549 breast
  TGI: 35 µM
COLO 205 colon
  TGI: 22.2 µM
K-562 leukemia
  TGI: 44.4 µM
786-0 renal
  TGI: 24.4 µM

## O=S1(=O)c2cnccc2NC(=NCc2ccccc2)N1c1ccccc1
HL-60(TB) leukemia
  TGI: > 100 µM
HCC-2998 colon
  TGI: > 100 µM
OVCAR-3 ovarian
  TGI: > 100 µM
SR leukemia
  TGI: > 100 µM
LOX IMVI melanoma
  TGI: > 100 µM
SNB-75 CNS
  TGI: > 100 µM
BT-549 breast
  TGI: > 100 µM
COLO 205 colon
  TGI: > 100 µM
K-562 leukemia
  TGI: > 100 µM
786-0 renal
  TGI: > 100 µM

## O=C(/C=C/c1ccc2c(c1)OCO2)Cc1nc2ccccc2[nH]c1=O
HL-60(TB) leukemia
  TGI: > 100 µM
HCC-2998 colon
  TGI: 86.8 µM
OVCAR-3 ovarian
  TGI: 81.5 µM
SR leukemia
  TGI: > 100 µM
LOX IMVI melanoma
  TGI: > 100 µM
BT-549 breast
  TGI: > 100 µM
COLO 205 colon
  TGI: > 100 µM
K-562 leukemia
  TGI: > 100 µM
786-0 renal
  TGI: 32.5 µM

## O=C1CS(=O)(=O)C(c2cccc(Oc3ccccc3)c2)N1c1cc(Cl)ccc1Cl (stereo not drawn)
HL-60(TB) leukemia
  TGI: 81.8 µM
HCC-2998 colon
  TGI: 37.1 µM
OVCAR-3 ovarian
  TGI: 35.1 µM
SR leukemia
  TGI: > 100 µM
LOX IMVI melanoma
  TGI: 28.2 µM
SNB-75 CNS
  TGI: 33.1 µM
BT-549 breast
  TGI: 41.3 µM
COLO 205 colon
  TGI: > 100 µM
K-562 leukemia
  TGI: > 100 µM
786-0 renal
  TGI: 34.8 µM

## CC(=O)n1nc(-c2ccccc2)n(/N=C/c2ccc([N+](=O)[O-])o2)c1=O
HL-60(TB) leukemia
  TGI: 9.73 µM
HCC-2998 colon
  TGI: 19.1 µM
OVCAR-3 ovarian
  TGI: 17 µM
SR leukemia
  TGI: 14.1 µM
LOX IMVI melanoma
  TGI: 23.2 µM
SNB-75 CNS
  TGI: 26.8 µM
BT-549 breast
  TGI: 17.6 µM
COLO 205 colon
  TGI: 12.7 µM
K-562 leukemia
  TGI: 37 µM
786-0 renal
  TGI: 7.97 µM

## COP(=O)(OC)C(Nc1ccc(Cc2ccc(NC(c3ccco3)P(=O)(OC)OC)cc2)cc1)c1ccco1 (stereo not drawn)
HL-60(TB) leukemia
  TGI: > 100 µM
OVCAR-3 ovarian
  TGI: > 100 µM
LOX IMVI melanoma
  TGI: > 100 µM
SNB-75 CNS
  TGI: 10.2 µM
BT-549 breast
  TGI: 60 µM
COLO 205 colon
  TGI: > 100 µM
K-562 leukemia
  TGI: > 100 µM
786-0 renal
  TGI: > 100 µM

## CC1=NNC(=O)C1C1CC(c2c[nH]c3ccccc23)=NN=C1Cl (stereo not drawn)
HL-60(TB) leukemia
  TGI: 53.6 µM
OVCAR-3 ovarian
  TGI: > 100 µM
LOX IMVI melanoma
  TGI: > 100 µM
SNB-75 CNS
  TGI: > 100 µM
BT-549 breast
  TGI: > 100 µM
COLO 205 colon
  TGI: 80.6 µM
K-562 leukemia
  TGI: 88.6 µM
786-0 renal
  TGI: > 100 µM

## CCN1C(=O)C(=C/C=C/c2ccc(N(CC)CC)cc2)C(=O)N(CC)C1=S
HL-60(TB) leukemia
  TGI: > 100 µM
HCC-2998 colon
  TGI: > 100 µM
OVCAR-3 ovarian
  TGI: 54.9 µM
LOX IMVI melanoma
  TGI: > 100 µM
BT-549 breast
  TGI: > 100 µM
COLO 205 colon
  TGI: > 100 µM
K-562 leukemia
  TGI: > 100 µM
786-0 renal
  TGI: > 100 µM

## Cc1cccc(/C(Br)=C2/OC(=O)c3ccccc32)c1
HCC-2998 colon
  TGI: > 100 µM
OVCAR-3 ovarian
  TGI: > 100 µM
SR leukemia
  TGI: > 100 µM
SNB-75 CNS
  TGI: > 100 µM
BT-549 breast
  TGI: > 100 µM
COLO 205 colon
  TGI: > 100 µM
786-0 renal
  TGI: > 100 µM

## S=C1NC2=C(CSC/C2=C\c2ccccc2)C(c2ccccc2)N1 (stereo not drawn)
HL-60(TB) leukemia
  TGI: 44.5 µM
HCC-2998 colon
  TGI: > 100 µM
OVCAR-3 ovarian
  TGI: > 100 µM
SR leukemia
  TGI: > 100 µM
LOX IMVI melanoma
  TGI: > 100 µM
BT-549 breast
  TGI: 78.7 µM
COLO 205 colon
  TGI: > 100 µM
K-562 leukemia
  TGI: > 100 µM
786-0 renal
  TGI: > 100 µM

## Nc1nc(Nc2ccccc2)sc1C(=O)c1ccco1
HL-60(TB) leukemia
  TGI: 36.1 µM
OVCAR-3 ovarian
  TGI: 31.5 µM
SR leukemia
  TGI: 25.2 µM
LOX IMVI melanoma
  TGI: 42.8 µM
SNB-75 CNS
  TGI: 37.7 µM
BT-549 breast
  TGI: 54.3 µM
COLO 205 colon
  TGI: 27.8 µM
K-562 leukemia
  TGI: 57.7 µM
786-0 renal
  TGI: 31.7 µM

## COC(=O)[C@H](Cc1ccccc1)NC(=O)N(CCC#N)CCN(C(=O)N[C@@H](Cc1ccccc1)C(=O)OC)c1ccccc1
HCC-2998 colon
  TGI: > 100 µM
OVCAR-3 ovarian
  TGI: 43.4 µM
LOX IMVI melanoma
  TGI: 41.3 µM
SNB-75 CNS
  TGI: 45.3 µM
BT-549 breast
  TGI: > 100 µM
COLO 205 colon
  TGI: 56.2 µM
786-0 renal
  TGI: 50.8 µM

## COc1cc([N+](=O)[O-])c(OC)c2c(Nc3ccc(S(=O)(=O)O)c4cc(S(=O)(=O)O)cc(S(=O)(=O)O)c34)cc(C)nc12
HL-60(TB) leukemia
  TGI: > 100 µM
OVCAR-3 ovarian
  TGI: > 100 µM
LOX IMVI melanoma
  TGI: > 100 µM
SNB-75 CNS
  TGI: > 100 µM
BT-549 breast
  TGI: > 100 µM
COLO 205 colon
  TGI: > 100 µM
786-0 renal
  TGI: > 100 µM

## Cc1cc(O)c(-c2cc(O)c(C)cc2O)cc1O
HL-60(TB) leukemia
  TGI: 3.88 µM
HCC-2998 colon
  TGI: 27.3 µM
OVCAR-3 ovarian
  TGI: 5.12 µM
LOX IMVI melanoma
  TGI: 16.6 µM
SNB-75 CNS
  TGI: 29 µM
BT-549 breast
  TGI: 26.7 µM
COLO 205 colon
  TGI: 22.6 µM
K-562 leukemia
  TGI: 4.65 µM
786-0 renal
  TGI: 8.55 µM

## COC(=O)C1(O)C(c2ccccc2)=NC2(C)CCCC21 (stereo not drawn)
HCC-2998 colon
  TGI: > 100 µM
OVCAR-3 ovarian
  TGI: > 100 µM
SR leukemia
  TGI: > 100 µM
LOX IMVI melanoma
  TGI: > 100 µM
SNB-75 CNS
  TGI: > 100 µM
BT-549 breast
  TGI: > 100 µM
COLO 205 colon
  TGI: > 100 µM
K-562 leukemia
  TGI: > 100 µM
786-0 renal
  TGI: > 100 µM

## COC1C(O)C(O[C@H]2CC[C@@]3(C)C(CC[C@@H]4[C@@H]3CC[C@]3(C)[C@@H](C(C)OC5OC(CO)C(O)C(O)C5O)CC[C@]43O)C2)OC(C)C1OC1OC(CO)C(O)C(O)C1O (stereo partly drawn)
HCC-2998 colon
  TGI: > 100 µM
OVCAR-3 ovarian
  TGI: > 100 µM
SR leukemia
  TGI: > 100 µM
LOX IMVI melanoma
  TGI: > 100 µM
SNB-75 CNS
  TGI: > 100 µM
BT-549 breast
  TGI: > 100 µM
COLO 205 colon
  TGI: > 100 µM
K-562 leukemia
  TGI: > 100 µM
786-0 renal
  TGI: > 100 µM

## Cc1c(-c2ccccc2)[nH]n(C2=NCCN2)c1=O
HL-60(TB) leukemia
  TGI: > 100 µM
OVCAR-3 ovarian
  TGI: > 100 µM
SR leukemia
  TGI: > 100 µM
LOX IMVI melanoma
  TGI: > 100 µM
SNB-75 CNS
  TGI: > 100 µM
BT-549 breast
  TGI: > 100 µM
COLO 205 colon
  TGI: > 100 µM
K-562 leukemia
  TGI: > 100 µM
786-0 renal
  TGI: > 100 µM

## O=[N+]([O-])c1cccc2c(N=Nc3ccc4ccccc4c3O)c(O)cc(S(=O)(=O)O)c12
HL-60(TB) leukemia
  TGI: 91.5 µM
OVCAR-3 ovarian
  TGI: > 100 µM
SR leukemia
  TGI: > 100 µM
LOX IMVI melanoma
  TGI: > 100 µM
SNB-75 CNS
  TGI: > 100 µM
BT-549 breast
  TGI: > 100 µM
K-562 leukemia
  TGI: > 100 µM
786-0 renal
  TGI: > 100 µM

## O=C1c2cccc(O)c2C(=O)c2c(OC3OC(CO)C(O)C(O)C3O)cccc21 (stereo not drawn)
HCC-2998 colon
  TGI: 59.6 µM
OVCAR-3 ovarian
  TGI: > 100 µM
SR leukemia
  TGI: > 100 µM
LOX IMVI melanoma
  TGI: > 100 µM
SNB-75 CNS
  TGI: 54.6 µM
BT-549 breast
  TGI: 93.3 µM
COLO 205 colon
  TGI: 39.2 µM
K-562 leukemia
  TGI: > 100 µM
786-0 renal
  TGI: > 100 µM

## Cc1cc(C)c(/C=C(\C(=C/c2c(C)cc(C)cc2C)[N+](=O)[O-])[N+](=O)[O-])c(C)c1
HCC-2998 colon
  TGI: > 100 µM
OVCAR-3 ovarian
  TGI: > 100 µM
SR leukemia
  TGI: > 100 µM
LOX IMVI melanoma
  TGI: > 100 µM
SNB-75 CNS
  TGI: > 100 µM
BT-549 breast
  TGI: > 100 µM
COLO 205 colon
  TGI: > 100 µM
K-562 leukemia
  TGI: > 100 µM

## Clc1ccc(/C(=C\c2ccccc2)Cn2ccnc2)cc1
HL-60(TB) leukemia
  TGI: 45.5 µM
HCC-2998 colon
  TGI: 48.8 µM
SR leukemia
  TGI: > 100 µM
LOX IMVI melanoma
  TGI: 22.9 µM
SNB-75 CNS
  TGI: 59.4 µM
BT-549 breast
  TGI: 38 µM
COLO 205 colon
  TGI: 28.6 µM
K-562 leukemia
  TGI: > 100 µM
786-0 renal
  TGI: 38.5 µM

## CCOC(=O)C1=CC(C)(C(=O)OCC)Nc2c(nc(N)[nH]c2=O)N1 (stereo not drawn)
HCC-2998 colon
  TGI: > 10 µM
OVCAR-3 ovarian
  TGI: > 10 µM
LOX IMVI melanoma
  TGI: > 10 µM
SNB-75 CNS
  TGI: > 10 µM
BT-549 breast
  TGI: > 10 µM
COLO 205 colon
  TGI: > 10 µM
K-562 leukemia
  TGI: > 10 µM
786-0 renal
  TGI: > 10 µM
